# Measured values published in publication PMC10045663, “Synthesis, In Vitro Biological Evaluation of Antiproliferative and Neuroprotective Effects and In Silico Studies of Novel 16E-Arylidene-5α,6α-epoxyepiandrosterone Derivatives” (Biomedicines, 2023).
# Assays:
# Format in all cases: cell-based
# MCF-7 cells [1] = assay: PI incorporation (propidium iodide staining); settings: 48 h
# Protocol: After 48 h of being seeded at the same conditions explained in the previous (Section 2.2.4), MCF-7 cells were treated with the steroidal derivatives 19 and 5-FU at 1 and 10 µM and maintained in culture for 48 h. Untreated cells were also used as a negative control. Subsequently, cells were incubated with 20 µL/per well of a propidium iodide solution (PI; 1 mg/mL in PBS; Sigma-Aldrich Co. LLC) for 25 min at 37 °C. Then, the medium was removed, and the cells were fixed with 10% formalin for 15 min at room temperature. Cells were washed three times with PBS and incubated with 30 µL/per coverslip of Hoechst-33342 (1:500) for 10 min. After incubation, cells were washed three times with PBS. Coverslips were mounted on a drop of the fluoroshield mounting medium on a microscope slide, left to dry for 24 h, and then visualized in a Zeiss Axio Imager A1 microscope with the 40× objective.
# [2] = tested on: N27 (rat dopaminergic neuronal cells); assay: MTT cell proliferation assay, N27 cells; settings: 72 h, non-tumoral cells, read-out: Estimated IC50, N27
# [3] = tested on: all cell lines (NHDF, PNT1A, N27, LNCaP, PC-3, MCF-7); assay: MTT preliminary screening, all cell lines taken together; settings: 50 µM, 72 h
# Protocol: LNCaP, PC-3, MCF-7, PNT1A, N27, and NHDF cells were obtained from the American Type Culture Collection (ATCC; Manassas, VA, USA) and were cultured in 75 cm^2 culture flasks at 37 °C in a humidified air incubator with 5% CO2. LNCaP, PC-3, PNT1A, and N27 cells, respectively, were cultured in RPMI 1640 medium (Sigma-Aldrich, Inc. St. Louis, MO, USA) with 10% fetal bovine serum (FBS; Sigma-Aldrich, Inc. St. Louis, MO, USA) and 1% of the antibiotic mixture of 10,000 U/mL penicillin G and […] streptomycin (Sp, Sigma-Aldrich, Inc. St. Louis, MO, USA). MCF-7 cells were cultured in DMEM medium (Sigma-Aldrich, Inc. St. Louis, MO, USA) supplemented with 10% fetal bovine serum (FBS; Sigma-Aldrich, Inc. St. Louis, MO, USA) and 1% antibiotic/antimycotic (10,000 U/mL penicillin G, […] streptomycin, and 25 µg/mL amphotericin B: Ab, Sigma-Aldrich, Inc. St. Louis, MO, USA). Finally, NHDF cells were cultured in RPMI 1640 medium supplemented with 10% FBS, 2 mM L-glutamine, 10 mM HEPES, 1 mM sodium pyruvate, and 1% of the antibiotic/antimycotic Ab, and these cells were used in passages 10th to 14th. For all cell types, the medium was renewed every 2 days until cells nearly reached the confluence state. When cells reach approximately 90–95% confluence, they are gently detached by trypsinization (trypsin-EDTA solution: 0.125 g/L of trypsin and 0.02 g/L of EDTA). Before each experiment, viable cells were counted in a Neubauer chamber by a trypan-blue exclusion assay and adequately diluted in the appropriate complete cell culture medium.
# All tested compounds were dissolved in dimethyl sulfoxide (DMSO; Sigma-Aldrich, Inc. St. Louis, MO, USA) at a concentration of 10 mM and stored at 4 °C. From the mother-solutions, the diluted solutions of the compounds, in different concentrations, were prepared in the respective complete culture medium before each experiment.
# After reaching a confluence state, cells were trypsinized and counted by the trypan-blue exclusion assay and then seeded with an initial density of 2 × 10^4 cells/mL in 96-well culture plates (Nunc, Apogent, Denmark) and left to adhere and grow for 48 h. Subsequently, the medium was removed, and the cells were treated with compound solutions (10 and 50 µM for preliminary studies and 0.01, 0.1, 1, 10, 50, and 100 µM for concentration-response studies) in complete culture medium for 72 h. 5-Fluorouracil (5-FU) was used as a positive control, and untreated cells were used as the negative control. Compounds leading to cell proliferation relative to control clearly below 50%, at 10 µM, or clearly below 25%, at 50 µM, in the screening studies were selected to concentration-response studies in tumoral cell lines. Each experiment was performed in quadruplicate and independently at least two times. The in vitro antiproliferative effects were evaluated by the MTT assay (Sigma-Aldrich, Inc. St. Louis, MO, USA). After the incubation period, the medium was removed, and 100 µL of phosphate buffer saline (PBS, NaCl 137 mM; KCl 2.7 mM; Na2HPO4 10 mM; and KH2PO4 1.8 mM in deionized water with a pH adjusted to 7.4) were used to wash the cells. Then, 100 µL of the MTT solution (5 mg/mL) was prepared in the appropriate serum-free medium and added to each well, followed by incubation for 4 h at 37 °C. Hereafter, the MTT containing medium was removed, and the formazan crystals were dissolved in DMSO. Then, the absorbance was measured at 570 nm using a xMarkTM microplate spectrophotometer from BIO-RAD Laboratories. Cell viability values were expressed as percentages relative to the negative control.
# [4] = tested on: PNT1A (normal prostate cells); assay: MTT cell proliferation assay, PNT1A cells; settings: 72 h, non-tumoral cells, read-out: Estimated IC50, PNT1A
# MCF-7 cells [5] = assay: Nearest neighbor distance analysis with ImageJ; settings: MCF-7, 1 and 10 µM, 48 h
# Excerpt: The nuclear measurements were achieved by converting 16-bit photomicrographs of Hoechst 33342-stained nuclei in different studied conditions into 8-bit images. Then, these imagens were autothresholded to binary photos using the default “Make binary” function of ImageJ (v. 1.49) software (NIH Image, Bethesda, MD, USA). Cell nuclei that are touching were separated and fragments were discarded based on area through “Analyze Particle” function. This function also provides several other information, such as nuclear area (NA), circumference, and form factor [26]. Furthermore, the “Nearest Neighbor Distance” (NND) was determined. This function allows measuring the distance between each cell nucleus and the nearest ones, providing information about cell distribution.
# [6] = tested on: NHDF cells (normal human dermal fibroblasts); assay: MTT cell proliferation assay, NHDF cells; settings: 72 h, non-tumoral cells, read-out: Estimated IC50, NHDF
substance,measurement,setting,value
"(E)-16-(2,3-Dichlorobenzylidene)-3-hydroxy-5α ,6α -epoxy-10,13-dimethyl-1,3,4,7,8,9,10,11,12,13,15,16-dodecahydro-2H-cyclopenta[α ]phenanthren-17(14H)-one [Compound 19]",PI-positive cells relative to the negative control,"MCF-7 cells [1]; MCF-7, 1 µM",no significant effect
same,PI-positive cells relative to the negative control,"MCF-7 cells [1]; MCF-7, 10 µM",significantly increase
same,percentage of PI incorporation compared with the positive control (5-FU),"MCF-7 cells [1]; MCF-7, 10 µM",about three times
same,IC50,[2],13.3 µM
same,relative cell proliferation,[3],≤ 50%
same,IC50,[4],12.8 µM
same,"cell distribution (nearest neighbor distance, NND)",MCF-7 cells [5],more random distribution with nuclei more spaced
same,IC50,[6],18.7 µM
